Structures can show the parent of a compound that is named as a salt. Where two headings read alike, the source gives them in different places.
How the values were obtained:
[1] = test system: UV4 cells; assay: cells; type: cell-based; conditions: Cricetulus griseus
[2] = test system: SKOV3 cells; assay: cells; type: cell-based; conditions: Homo sapiens
[3] = UV4, light or radiation study, 4 h, read-out: IC50, P (unirradiated prodrug)
[4] = UV4, 4 h, read-out: IC50, E (authentic effector)
[5] = SK-OV-3, light or radiation study, 4 h, read-out: IC50, P (unirradiated prodrug)
[6] = SK-OV-3, 4 h, read-out: IC50, E (authentic effector)

Structure (SMILES): C[N+](C)(Cc1ccc([N+](=O)[O-])cc1)c1ccc2c(c1)N(S(C)(=O)=O)CC2CCl (centres unmarked) [Compound 11, 3-(chloromethyl)-6-[N,N-dimethyl-N-(4-nitrobenzyl)-ammonio]-1-(methanesulfonyl)indoline chloride]
- IC50 [1, 3]: 1140 ± 122 µM

Structure (SMILES): CN(C)c1ccc2c(c1)N(S(C)(=O)=O)CC2CCl (centres unmarked) [Compound 12, reference compound]
- IC50 [1, 4]: 15 ± 6 µM

Structure (SMILES): C[N+](C)(CCNC(=O)c1cccc2cc3ccccc3nc12)Cc1ccc([N+](=O)[O-])cc1 [Compound 15, 2-[N-(acridin-4-yl)carbonyl]aminoethyl-(dimethyl)-4-nitrobenzylammonium bromide]
- IC50 [1, 3]: > 150 µM
- IC50 [2, 5]: > 150 µM

Structure (SMILES): C[N+](C)(CCNC(=O)c1cccc2cc3ccccc3nc12)Cc1ccc([N+](=O)[O-])s1 [Compound 16, 2-[N-(acridin-4-yl)carbonyl]aminoethyl-(dimethyl)-(5-nitro-2-thienyl)methylammonium chloride]
- IC50 [1, 3]: 40 ± 8 µM
- IC50 [2, 5]: 169 ± 58 µM

Structure (SMILES): Cc1cccc2c(N)c3cccc(C(=O)NCC[N+](C)(C)Cc4ccc([N+](=O)[O-])cc4)c3nc12 [Compound 17, 2-[N-(9-amino-5-methylacridin-4-yl)carbonyl]aminoethyl-(dimethyl)-4-nitrobenzylammonium bromide]
- IC50 [1, 3]: 0.78 µM
- IC50 [2, 5]: 4 ± 0.1 µM

Structure (SMILES): Cc1cccc2c(N)c3cccc(C(=O)NCC[N+](C)(C)Cc4ccccc4[N+](=O)[O-])c3nc12 [Compound 18, 2-[N-(9-amino-5-methylacridin-4-yl)carbonyl]aminoethyl-(dimethyl)-2-nitrobenzyl]ammonium chloride]
- IC50 [1, 3]: 3.1 µM

Structure (SMILES): Cc1cccc2c(N)c3cccc(C(=O)NCC[N+](C)(C)Cc4ccc([N+](=O)[O-])s4)c3nc12 [Compound 19, 2-[N-(9-amino-5-methylacridin-4-yl)carbonyl]aminoethyl-(dimethyl)-5-nitro-2-thienylmethylammonium chloride]
- IC50 [1, 3]: 0.16 ± 0.03 µM

Structure (SMILES): Cc1cccc2c(N)c3cccc(C(=O)NCC[N+](C)(C)Cc4nc(N5CCOCC5)sc4[N+](=O)[O-])c3nc12 [Compound 20, 2-[N-(9-amino-5-methylacridin-4-yl)carbonyl]aminoethyl-(dimethyl)-2-[4-morpholino-5-nitro-4-thiazolylmethyl]ammonium chloride]
- IC50 [1, 3]: 1 ± 0.3 µM

Structure (SMILES): Cc1cccc2c(N)c3cccc(C(=O)NCC[N+](C)(C)Cc4ccc([N+](=O)[O-])n4C)c3nc12 [Compound 21, 2-(N-[9-amino-5-methylacridin-5-yl]carbonyl)aminoethyl-(dimethyl)[1-methyl-5-nitro-2-pyrrolyl]methylammonium chloride]
- IC50 [1, 3]: 2 ± 0.4 µM

Structure (SMILES): Cc1cccc2c(N)c3cccc(C(=O)NCC[N+](C)(C)Cc4c([N+](=O)[O-])ncn4C)c3nc12 [Compound 22, 2-(N-[9-amino-5-methylacridin-4-yl]carbonyl)aminoethyl-(dimethyl)-(1-methyl-4-nitro-5-imidazolyl)methylammonium chloride]
- IC50 [1, 3]: 1.9 ± 0.4 µM

Structure (SMILES): CN(C)CCNc1ccc(NCC[N+](C)(C)Cc2ccc([N+](=O)[O-])cc2)c2c1C(=O)c1c(O)ccc(O)c1C2=O [Compound 27, 1-[(2-(4-nitrobenzyl)dimethylammonium)ethylamino]-4-[(2-dimethylamino)ethylamino]-5,8-dihydroxy-9,10-anthracenedione chloride]
- IC50 [1, 3]: 0.27 ± 0.04 µM
- IC50 [2, 5]: 9.7 µM

Structure (SMILES): CN(C)CCNC(=O)c1cccc2cc3ccccc3nc12 [Compound 37, N-[(dimethylamino)ethyl]acridine-4-carboxamide, reference compound]
- IC50 [1, 4]: 0.49 ± 0.11 µM
- IC50 [2, 6]: 3.4 ± 0.8 µM

Structure (SMILES): Cc1cccc2c(N)c3cccc(C(=O)NCCN(C)C)c3nc12 [Compound 38, (N,N-dimethylaminoethyl)-9-amino-5-methylacridine-4-carboxamide, reference compound]
- IC50 [1, 4]: 0.011 µM
- IC50 [2, 6]: 0.046 ± 0.002 µM

Structure (SMILES): CN(C)CCNc1ccc(NCCN(C)C)c2c1C(=O)c1c(O)ccc(O)c1C2=O [Compound 46, 1,4-bis[(2-dimethylamino)-ethylamino]-5,8-dihydroxy-9,10-anthracenedione, reference compound]
- IC50 [1, 4]: 0.0021 µM
- IC50 [2, 6]: 0.074 ± 0.0004 µM

Structure (SMILES): NCCNCCCNC(=O)c1cccc2cc3ccccc3nc12 [Compound 47, N-[3-[(2-Aminoethyl)amino]propyl]acridine-4-carboxamide trihydrochloride, reference compound]
- IC50 [1, 4]: 1.6 ± 0.4 µM
- IC50 [2, 6]: 1.6 ± 0.3 µM
